Biological target: T1, GST-tagged recombinant MCAK protein (amino acids 182 to 646 of the human MCAK protein) (Homo sapiens, UniProt Q99661)
T1 construct: corresponding to amino acids 182 to 646 of the human MCAK protein; GST; purchased Cytoskeleton, Denver Colo
Assay: MCAK ATPase assay
Assay type: biochemical
Details: dose-response, read-out: 50% inhibitory concentration (IC50) for MCAK activity
Description: Based on the instant data supporting a role for MCAK in p53 mediated cell death, it can be reasoned that MCAK will also fill a therapeutic niche for rational drug design targeting the mitotic checkpoint. Importantly, cancer cells with abrogated p53 contain high levels of MCAK, thereby providing a genetic determinant for therapeutic use of MCAK inhibitors. Accordingly, the inventor sought to identify and characterize inhibitors of MCAK function. MCAK utilizes the energy of Adenosine triphosphate (ATP) hydrolysis to carry out its MT depolymerization function. The inventor exploited this characteristic to utilize and optimize a commercially available in vitro assay that measures MCAK ATPase activity (Cytoskeleton, Denver Colo.). The components of the assay are: recombinant MCAK protein, ATP, pre-formed MTs, detection reagent for inorganic phosphate (Pi), and the appropriate buffers for the reaction. We utilized a glutathione S-transferase (GST)-tagged recombinant MCAK protein corresponding to amino acids 182 to 646 of the human MCAK protein, a region of the protein that contains the kinesin motor domain of MCAK. The ATPase activity of MCAK directly correlates to the presence of Pi in the reaction mixture.
The inventor used the MCAK ATPase to carry out a high-throughput screen (HTS) of a library of synthetic small molecules and various natural products. […]

T1 sequence (Q99661 182-646): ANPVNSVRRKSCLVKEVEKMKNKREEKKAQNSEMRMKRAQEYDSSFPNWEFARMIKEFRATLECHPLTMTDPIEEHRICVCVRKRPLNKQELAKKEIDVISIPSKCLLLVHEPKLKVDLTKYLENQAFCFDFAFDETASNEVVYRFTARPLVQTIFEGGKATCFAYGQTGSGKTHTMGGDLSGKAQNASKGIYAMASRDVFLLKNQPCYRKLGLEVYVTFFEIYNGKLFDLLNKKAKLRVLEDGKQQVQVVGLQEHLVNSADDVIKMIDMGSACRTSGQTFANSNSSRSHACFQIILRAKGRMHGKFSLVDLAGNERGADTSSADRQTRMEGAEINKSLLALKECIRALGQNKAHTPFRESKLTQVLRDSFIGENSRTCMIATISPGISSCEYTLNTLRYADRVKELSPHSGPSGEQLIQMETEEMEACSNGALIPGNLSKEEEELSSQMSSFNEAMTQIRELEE

SMILES: Cc1cc2c(C(C)C)c(O)c(O)c(C=O)c2c(O)c1-c1c(C)cc2c(C(C)C)c(O)c(O)c(C=O)c2c1O [gossypol]
- IC50: ~11 µM
